# Experimental data reported in ChEMBL document CHEMBL4002586, “Aurone Mannich base derivatives as promising multifunctional agents with acetylcholinesterase inhibition, anti-β-amyloid aggragation and neuroprotective properties for the treatment of Alzheimer's disease” (Eur J Med Chem, 2017).
# The source made the active and inactive calls. The rule behind the calls is not given here.
# Tests used:
# [1] = target: T1, Amine oxidase [flavin-containing] A (Homo sapiens, UniProt P21397); test: Inhibition of recombinant human MAO-A expressed in baculovirus infected BTI insect cells at 10 uM using kynuramine as substrate incubated for 30 mins by fluorescence assay relative to control; conditions: 0.5 h
# T1 sequence (P21397 whole entry): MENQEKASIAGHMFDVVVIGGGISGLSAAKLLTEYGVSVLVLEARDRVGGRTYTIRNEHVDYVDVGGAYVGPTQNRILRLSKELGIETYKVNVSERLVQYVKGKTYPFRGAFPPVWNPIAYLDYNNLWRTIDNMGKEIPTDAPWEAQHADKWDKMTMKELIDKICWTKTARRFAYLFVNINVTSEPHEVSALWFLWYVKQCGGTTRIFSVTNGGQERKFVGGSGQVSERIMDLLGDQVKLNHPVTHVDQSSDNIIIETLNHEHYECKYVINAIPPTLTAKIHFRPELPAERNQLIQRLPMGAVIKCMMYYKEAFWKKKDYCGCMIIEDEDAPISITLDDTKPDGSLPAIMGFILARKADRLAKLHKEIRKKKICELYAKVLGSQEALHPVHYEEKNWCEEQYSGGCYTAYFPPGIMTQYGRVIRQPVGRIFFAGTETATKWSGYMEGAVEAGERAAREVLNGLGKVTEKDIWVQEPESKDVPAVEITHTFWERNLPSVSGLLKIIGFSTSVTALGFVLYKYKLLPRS
# [2] = Antioxidant activity assessed as inhibition of AAPH-induced peroxyl radical generation at 5 uM measured as trolox equivalent preincubated for 15 mins followed by AAPH addition measured every 60 secs for 90 mins by ORAC-FL assay; assay type: functional
# [3] = Inhibition of Cu2+-mediated aggregation of human amyloid beta (1 to 42 residues) at 25 uM after 24 hrs by thioflavin T-based fluorometric assay relative to control; assay type: functional
# [4] = target: Acetylcholinesterase (Electrophorus electricus, UniProt O42275); test: Inhibition of Electrophorus electricus AChE using acetylthiocholine iodide as substrate measured after 15 mins by Ellman's method
# [5] = target: butyrylcholinesterase (BuChE) (Rattus norvegicus, UniProt Q9JKC1); test: Inhibition of BuChE in rat serum at 50 uM using butyrylthiocholine as substrate measured after 15 mins by Ellman's method relative to control; conditions: probe butyrylthiocholine
# [6] = target: Acetylcholinesterase (Homo sapiens, UniProt P22303); test: Inhibition of human erythrocyte AChE using acetylthiocholine iodide as substrate measured after 15 mins by Ellman's method
# [7] = target: Amyloid-beta precursor protein (Homo sapiens) (UniProt P05067); test: Inhibition of self-induced aggregation of HFIP-treated human amyloid beta (1 to 42 residues) at 25 uM after 24 hrs by thioflavin T-based fluorometric assay relative to control
# [8] = target: T2, Amine oxidase [flavin-containing] B (Homo sapiens, UniProt P27338); test: Inhibition of recombinant human MAO-B expressed in baculovirus infected BTI insect cells at 10 uM using kynuramine as substrate incubated for 30 mins by fluorescence assay relative to control; conditions: 0.5 h
# T2 sequence (P27338 whole entry): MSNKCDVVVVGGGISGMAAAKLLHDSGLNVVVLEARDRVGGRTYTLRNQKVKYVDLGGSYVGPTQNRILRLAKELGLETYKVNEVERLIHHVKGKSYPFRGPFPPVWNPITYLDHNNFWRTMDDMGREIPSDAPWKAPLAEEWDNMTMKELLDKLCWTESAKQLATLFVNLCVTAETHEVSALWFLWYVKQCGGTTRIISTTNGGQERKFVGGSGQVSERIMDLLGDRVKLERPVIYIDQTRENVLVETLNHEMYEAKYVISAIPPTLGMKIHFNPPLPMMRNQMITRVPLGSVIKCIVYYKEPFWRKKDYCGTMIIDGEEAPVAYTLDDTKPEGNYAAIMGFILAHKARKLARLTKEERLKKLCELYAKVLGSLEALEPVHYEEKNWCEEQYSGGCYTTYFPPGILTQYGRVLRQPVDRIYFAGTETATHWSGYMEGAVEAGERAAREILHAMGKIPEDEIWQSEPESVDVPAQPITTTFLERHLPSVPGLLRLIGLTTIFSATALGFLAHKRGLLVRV
# [9] = target: T3, Acetylcholinesterase (Rattus norvegicus, UniProt P37136); test: Inhibition of AChE in rat brain cortex homogenates using acetylthiocholine iodide as substrate in presence of BuChE inhibitor tetraisopropyl pyrophosphoramide measured after 15 mins by Ellman's method
# T3 sequence (P37136 whole entry): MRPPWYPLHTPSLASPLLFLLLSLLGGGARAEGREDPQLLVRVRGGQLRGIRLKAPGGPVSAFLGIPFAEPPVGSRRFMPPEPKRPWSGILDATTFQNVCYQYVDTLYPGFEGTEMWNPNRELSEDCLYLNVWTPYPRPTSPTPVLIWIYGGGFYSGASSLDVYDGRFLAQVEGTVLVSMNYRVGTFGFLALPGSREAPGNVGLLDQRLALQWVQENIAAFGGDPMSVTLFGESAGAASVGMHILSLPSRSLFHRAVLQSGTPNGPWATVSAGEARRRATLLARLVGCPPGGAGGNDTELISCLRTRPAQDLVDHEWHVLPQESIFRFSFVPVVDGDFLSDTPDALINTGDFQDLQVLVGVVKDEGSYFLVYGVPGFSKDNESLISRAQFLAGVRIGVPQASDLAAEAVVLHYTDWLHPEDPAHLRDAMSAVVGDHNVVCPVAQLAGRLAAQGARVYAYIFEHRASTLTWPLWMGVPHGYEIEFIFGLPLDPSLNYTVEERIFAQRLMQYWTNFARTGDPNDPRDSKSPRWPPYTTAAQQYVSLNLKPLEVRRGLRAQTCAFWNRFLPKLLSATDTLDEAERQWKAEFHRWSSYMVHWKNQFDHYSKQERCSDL
# [10] = target: Acetylcholinesterase (Electrophorus electricus) (UniProt O42275); test: Inhibition of Electrophorus electricus AChE at 50 uM using acetylthiocholine iodide as substrate measured after 15 mins by Ellman's method relative to control
# [11] = target: T4, Acetylcholinesterase (Rattus norvegicus) (UniProt P37136); test: Inhibition of AChE in rat brain cortex homogenates at 50 uM using acetylthiocholine iodide as substrate in presence of BuChE inhibitor tetraisopropyl pyrophosphoramide measured after 15 mins by Ellman's method relative to control
# T4 sequence (whole entry): T3 sequence (P37136 whole entry)
# [12] = Metal chelating activity assessed as mole fraction of compound required to show 1:1 stoichiometry for Cu2+-compound complex at 37.5 uM after 30 mins by UV-vis spectrophotometric method; assay type: functional
# [13] = Metal chelating activity assessed as compound-Al3+ complex formation at 37.5 uM in presence of AlCl3 after 30 mins by UV-visible spectrophotometric analysis; assay type: functional
# [14] = Permeability of compound at 100 ug/ml after 18 hrs by PAMPA; assay type: physicochemical; conditions: read-out: permeability
# [15] = Metal chelating activity assessed as compound-Zn2+ complex formation at 37.5 uM in presence of ZnCl2 after 30 mins by UV-visible spectrophotometric analysis; assay type: functional
# [16] = Metal chelating activity assessed as compound-Cu2+ complex formation at 37.5 uM in presence of CuCl2 after 30 mins by UV-visible spectrophotometric analysis; assay type: functional
# [17] = Metal chelating activity assessed as compound-Fe2+ complex formation at 37.5 uM in presence of FeSO4 after 30 mins by UV-visible spectrophotometric analysis; assay type: functional
# Chain of Acetylcholinesterase (Homo sapiens, UniProt P22303) (P22303 whole entry, the tested form may be a part): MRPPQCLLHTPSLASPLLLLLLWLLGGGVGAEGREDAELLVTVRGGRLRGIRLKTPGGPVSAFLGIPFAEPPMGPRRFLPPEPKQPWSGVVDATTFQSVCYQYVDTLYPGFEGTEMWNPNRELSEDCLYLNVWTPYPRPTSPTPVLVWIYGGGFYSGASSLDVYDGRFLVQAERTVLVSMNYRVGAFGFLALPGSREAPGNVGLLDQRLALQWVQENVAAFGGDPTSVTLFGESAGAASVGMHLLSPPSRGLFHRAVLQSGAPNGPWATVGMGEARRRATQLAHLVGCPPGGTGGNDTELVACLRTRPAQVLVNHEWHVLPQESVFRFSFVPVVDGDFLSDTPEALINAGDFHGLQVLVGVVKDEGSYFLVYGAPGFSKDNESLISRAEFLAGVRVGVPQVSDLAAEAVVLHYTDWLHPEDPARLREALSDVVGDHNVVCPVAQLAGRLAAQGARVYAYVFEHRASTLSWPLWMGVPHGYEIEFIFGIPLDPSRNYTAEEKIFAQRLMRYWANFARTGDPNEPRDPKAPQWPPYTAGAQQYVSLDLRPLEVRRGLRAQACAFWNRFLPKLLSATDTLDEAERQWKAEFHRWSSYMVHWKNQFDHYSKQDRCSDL
# Chain of butyrylcholinesterase (BuChE) (Q9JKC1 whole entry): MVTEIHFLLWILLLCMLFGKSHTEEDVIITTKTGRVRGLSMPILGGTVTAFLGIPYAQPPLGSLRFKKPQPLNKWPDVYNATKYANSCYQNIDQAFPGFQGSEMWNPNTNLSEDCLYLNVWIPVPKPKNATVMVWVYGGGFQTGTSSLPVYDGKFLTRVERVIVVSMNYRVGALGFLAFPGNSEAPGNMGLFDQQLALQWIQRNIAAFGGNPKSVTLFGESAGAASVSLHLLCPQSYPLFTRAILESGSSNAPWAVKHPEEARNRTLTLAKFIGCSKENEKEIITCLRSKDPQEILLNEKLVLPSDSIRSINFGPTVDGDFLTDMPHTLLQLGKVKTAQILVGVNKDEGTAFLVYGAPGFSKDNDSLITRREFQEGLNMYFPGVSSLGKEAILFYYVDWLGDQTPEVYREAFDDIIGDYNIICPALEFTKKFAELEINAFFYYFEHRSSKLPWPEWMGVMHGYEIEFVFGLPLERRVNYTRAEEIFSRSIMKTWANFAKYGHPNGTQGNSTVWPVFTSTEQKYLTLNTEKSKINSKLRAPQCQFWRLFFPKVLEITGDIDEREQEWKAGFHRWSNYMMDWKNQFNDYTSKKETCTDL
# Chain of Acetylcholinesterase (Electrophorus electricus, UniProt O42275) (O42275 whole entry): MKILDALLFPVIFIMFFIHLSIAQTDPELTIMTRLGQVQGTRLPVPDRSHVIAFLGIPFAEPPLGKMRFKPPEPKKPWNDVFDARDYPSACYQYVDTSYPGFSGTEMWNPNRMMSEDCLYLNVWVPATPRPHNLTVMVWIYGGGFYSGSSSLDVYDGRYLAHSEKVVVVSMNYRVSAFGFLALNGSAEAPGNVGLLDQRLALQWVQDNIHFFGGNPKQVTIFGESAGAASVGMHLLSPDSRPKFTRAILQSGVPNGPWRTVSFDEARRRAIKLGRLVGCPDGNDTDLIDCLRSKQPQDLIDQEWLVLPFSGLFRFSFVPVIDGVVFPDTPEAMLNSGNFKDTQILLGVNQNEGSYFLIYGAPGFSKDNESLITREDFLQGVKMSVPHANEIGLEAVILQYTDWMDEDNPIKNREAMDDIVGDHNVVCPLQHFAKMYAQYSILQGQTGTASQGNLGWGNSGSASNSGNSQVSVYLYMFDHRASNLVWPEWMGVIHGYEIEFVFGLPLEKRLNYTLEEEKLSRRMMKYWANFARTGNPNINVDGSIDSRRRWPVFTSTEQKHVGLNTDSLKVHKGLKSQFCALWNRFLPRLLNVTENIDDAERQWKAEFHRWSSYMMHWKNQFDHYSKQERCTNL
# Chain of Amyloid-beta precursor protein (Homo sapiens) (P05067 whole entry, the tested form may be a part): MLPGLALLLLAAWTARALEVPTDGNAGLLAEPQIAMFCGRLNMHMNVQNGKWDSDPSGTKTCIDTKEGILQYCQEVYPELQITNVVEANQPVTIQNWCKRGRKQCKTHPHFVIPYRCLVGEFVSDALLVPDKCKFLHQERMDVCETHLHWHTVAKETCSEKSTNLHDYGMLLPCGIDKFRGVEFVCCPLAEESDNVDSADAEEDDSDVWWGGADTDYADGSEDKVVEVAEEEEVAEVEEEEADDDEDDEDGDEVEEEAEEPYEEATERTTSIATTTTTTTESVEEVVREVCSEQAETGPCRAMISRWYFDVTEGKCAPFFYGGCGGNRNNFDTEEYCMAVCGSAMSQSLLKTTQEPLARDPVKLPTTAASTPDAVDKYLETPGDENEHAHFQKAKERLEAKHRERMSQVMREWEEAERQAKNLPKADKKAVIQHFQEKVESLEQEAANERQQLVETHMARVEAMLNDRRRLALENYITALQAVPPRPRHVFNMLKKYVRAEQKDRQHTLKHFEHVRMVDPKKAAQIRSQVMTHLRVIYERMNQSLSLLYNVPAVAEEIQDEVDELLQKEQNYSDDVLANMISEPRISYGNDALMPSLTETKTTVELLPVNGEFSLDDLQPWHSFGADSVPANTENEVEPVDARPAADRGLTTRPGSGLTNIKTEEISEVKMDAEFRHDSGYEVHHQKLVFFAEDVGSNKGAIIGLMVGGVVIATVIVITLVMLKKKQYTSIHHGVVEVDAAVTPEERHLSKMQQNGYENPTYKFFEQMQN
# Chain of Acetylcholinesterase (Electrophorus electricus) (O42275 24-633 limits assumed): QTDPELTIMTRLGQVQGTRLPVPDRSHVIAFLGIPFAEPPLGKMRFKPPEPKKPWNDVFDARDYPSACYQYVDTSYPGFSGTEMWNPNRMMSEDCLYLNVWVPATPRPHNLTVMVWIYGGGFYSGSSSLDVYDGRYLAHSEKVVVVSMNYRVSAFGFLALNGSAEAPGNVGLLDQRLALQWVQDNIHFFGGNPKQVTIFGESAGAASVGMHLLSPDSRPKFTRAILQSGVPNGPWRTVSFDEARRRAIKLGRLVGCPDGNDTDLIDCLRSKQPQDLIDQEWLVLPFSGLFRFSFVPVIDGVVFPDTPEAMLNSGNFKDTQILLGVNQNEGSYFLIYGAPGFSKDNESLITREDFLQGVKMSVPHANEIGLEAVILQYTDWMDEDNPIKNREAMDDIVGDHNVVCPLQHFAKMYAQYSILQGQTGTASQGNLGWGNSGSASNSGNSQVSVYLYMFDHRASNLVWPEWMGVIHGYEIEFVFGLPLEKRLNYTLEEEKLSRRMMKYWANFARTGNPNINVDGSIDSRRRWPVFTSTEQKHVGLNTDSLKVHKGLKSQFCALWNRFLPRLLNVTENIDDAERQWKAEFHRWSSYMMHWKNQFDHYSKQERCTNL
Structure (SMILES),inhibition at 10 µM [1] [%],Activity [2] [equiv],inhibition [3] [%],IC50 [4] [µM],"inhibition at 0.25 h, 50 µM [5] [%]",IC50 [6] [µM],inhibition [7] [%],inhibition at 10 µM [8] [%],IC50 [9] [µM],inhibition [10] [%],inhibition [11] [%],Activity [12] [molar ratio],Activity [13],"Papp at 18 h, 100 ug/ml [14] [×10⁻⁶ cm/s]",Activity [15],Activity [16],Activity [17]
COc1cc2c(cc1OC)C(=O)/C(=C/c1ccc(CN(C)C)c(O)c1)O2,20.2,2.02,32.2,8.93,< 5,24.3,46.9,2.23,25.8,,,,,,,,
COc1cc2c(cc1OC)C(=O)/C(=C/c1ccc(CN3CCN(Cc4ccccc4)CC3)c(O)c1)O2,15.3,1.01,38.7,,< 5,,41.8,6.9,,< 5,< 5,,,,,,
CCN(Cc1ccc(/C=C2\Oc3cc(OC)c(OC)cc3C2=O)cc1O)Cc1ccccc1N(C)C,15.3,1.56,72.6,6.4,19.6,6.69,78.3,38.1,7.32,,,0.98,Active,12.2,Active,Active,Active
CCN(CC)Cc1ccc(/C=C2\Oc3cc(OC)c(OC)cc3C2=O)cc1O,22.7,2.06,23.6,0.486,< 5,0.7,47.5,7.2,0.108,,,,,,,,
COc1cc2c(cc1OC)C(=O)/C(=C/c1ccc(O)cc1)O2,12.1,1.52,26.7,64.4,< 5,,15.7,36.1,297,,,,,,,,
CCN1CCN(Cc2ccc(/C=C3\Oc4cc(OC)c(OC)cc4C3=O)cc2O)CC1,15.1,1.61,39.7,11.7,< 5,32.1,49.1,2.6,24,,,,,,,,
CCN(Cc1ccccc1)Cc1ccc(/C=C2\Oc3cc(OC)c(OC)cc3C2=O)cc1O,17,1.17,60.9,35.8,< 5,,72.5,23.9,94.1,,,,,,,,
CCN(Cc1ccc(N(C)C)cc1)Cc1ccc(/C=C2\Oc3cc(OC)c(OC)cc3C2=O)cc1O,6.8,2.02,68.5,431,< 5,,80.5,19.2,288,,,,,,,,
